From patent US10836795B2, “Dual functional novel peptide having cell permeability and bone tissue regeneration ability, and use thereof” (SEOUL NATIONAL UNIVERSITY R&DB FOUNDATION, priority 2016, dated 2020)
Where a SMILES comes first, the peptide text is derived from it.

How the values were obtained:
dental pulp stem cells [1] = experiment: Cell permeability of FITC-labeled peptides by confocal microscopy; type: cell-based; conditions: for cell permeation ability / efficiency: 50-1000 μM; for fluorescence expression at highest concentration: 1000 uM
Description: In order to identify the cell permeability of the peptides set forth in SEQ ID NOS: 1 to 6 synthesized in Example 2, fluorescein isothiocyanate (FITC) was attached to the N-terminus of each peptide. Dental pulp stem cells were seeded at a density of 3×10^4 cells into a 4-well chamber and cultured in DMEM medium for 24 hours for cell stabilization. 24 hours later, the cells were treated with the FITC-labeled peptide at various concentrations (50 μM, 100 μM, 200 μM, 500 μM, 1000 μM) for 30 minutes. The cells were treated with 100 ng/ml of copine 7 protein for 30 minutes in order to compare the cell permeability thereof with the peptide. Then, in order to compare the intracellular permeation behaviors of these peptides or the protein, each well was treated with 4% paraformaldehyde, fixed at room temperature for 10 minutes, treated with 0.5% Triton-X 100, and cultured at room temperature for 15 minutes. Then, the cells were blocked with a buffer solution (PBS) containing 3% bovine serum albumin (BSA) for 30 minutes. In the case of copine 7 protein, a CPNE7 primary antibody was diluted at a ratio of 1:100 in a buffer solution (PBS) containing 1% bovine serum albumin and reacted at 4° C. for 16 hours. A fluorescein isothiocyanate (FITC)-conjugated secondary antibody was diluted at a ratio of 1:200 and reacted at room temperature for 1 hour. Finally, the nuclei-staining dye (Hoechst 33342, blue) was treated at room temperature for 10 minutes and washed with a buffer solution (PBS), and the fluorescence intensity thereof was measured using a confocal scanning microscope (IX 70, Olympus Co, Tokyo, Japan) to determine the degree of expression. All values were expressed as mean±SD of the fluorescence intensities measured in three different areas, and were compared with the control group (no treatment, NT) (*P<0.05).

dental pulp stem cells [2] = experiment: MTT assay, in-vitro cytotoxicity of synthetic peptides; type: cell-based; conditions: 50-2000 μM, 24, 48 and 72 hours
Description: A cell viability test was performed to evaluate the cytotoxicity of the peptides set forth in SEQ ID NOS: 1 to 6 synthesized in Example 2 above. For this purpose, dental pulp stem cells were seeded at a density of 9×10^3 cells per well into each well of a 96-well polystyrene plate in a Dulbecco's Modified Eagle's Medium (Gibco, USA) supplemented with 10% FBS (fetal bovine serum) and a 1% antibiotic-antimycotic solution (Thermo Fisher Scientific, USA), and then cultured for 24 hours. Each well was treated with various concentrations (50 μM, 100 μM, 200 μM, 400 μM, 500 μM, 800 μM, 1000 μM and 2000 μM) of the peptides set forth in SEQ ID NOS: 1 to 6. After 24 hours (1 day), 48 hours (2 days) and 72 hours (3 days), an MTT assay was performed to identify the cytotoxicity of the peptides. For the MTT assay, the medium was removed 24 hours, 48 hours, and 72 hours after treatment with peptide and each well was then treated with a mixture of 180 μl of a DMEM medium and 20 μl of a MTT solution, followed by further culturing for 1 hour. One hour later, the mixed solution was removed, each well was treated with 200 μl of dimethyl sulfoxide (DMSO) and the mixed solution was then transferred into a new 96-well plate and the cytotoxicity thereof was measured. All values were expressed as mean±standard deviation (SD) for triplicate experiments and the measured values are shown in FIG. 3.

[3] = tested on: osteocalcin in dental pulp stem cells (DPSCs); experiment: Bone differentiation ability: osteocalcin expression by immunofluorescence; type: cell-based
Description: In order to identify the bone differentiation ability of the peptide set forth in SEQ ID NO: 4, which was determined to have the best cell penetration function in Example 4, and the copine 7 protein, expression difference of osteocalcin in dental pulp stem cells (DPSCs) was evaluated.
For this purpose, 1×10^5 DPSCs were suspended in 50 μl of a medium (Dulbecco's Modified Eagle's Medium, Gibco, USA) supplemented with 10% FBS (fetal bovine serum) and a 1% antibiotic-antimycotic solution (Thermo Fisher Scientific, USA) in a 24-well plate. The cells were cultured for 24 hours and then treated with the peptide set forth in SEQ ID NO: 4 at concentrations of 200 μM and 500 μM and the copine 7 protein at a concentration of 100 ng/ml, respectively, while replacing the medium with Differentiation basal medium-Osteogenic (Lonza, USA) supplemented with a supplement (hMSC Osteogenic SingleQuots, Lonza, USA) for 18 days. […] Finally, the cells were treated with the nuclei-staining dye (Hoechst 33342, blue) at room temperature for 10 minutes and washed with buffer (PBS), and the expression level of osteocalcin was determined with a confocal scanning microscope (IX 70, Olympus Co, Tokyo, Japan). All values were expressed as mean±SD of fluorescence intensity measured in three different areas and were compared with the control group (no treatment, NT) (*P<0.05).

[4] = tested on: skull of a New Zealand white rabbit; experiment: Bone regeneration ability of a peptide-containing bone graft material in a rabbit skull defect; type: in vivo; conditions: 3 weeks after graft
Description: 20 mg and 40 mg of the peptide shown in SEQ ID NO: 4 were dissolved in 100 μL of purified water, and the solution was added to 0.1 g of a bone graft material, allowed to stand at 4° C. for 24 hours and lyophilized. The copine 7 protein was used as a control group in the same manner as above and was incorporated in amounts of 100 μg and 200 μg in 0.1 g of a bone graft material. A defect part with a diameter of 8 mm was formed in the skull of a New Zealand white rabbit (cuniculus) and implanted with 0.1 g of a bone graft material in each defect part. The periosteum and skin were double-sutured. The animal was sacrificed 3 weeks after graft, and the specimen was fixed in a formalin solution and embedded in tissues to obtain a specimen with a thickness of 20 um. The prepared specimen was stained with basic fuchsin and toluidine blue to prepare a non-decalcified sample. The sample was imaged with an optical microscope and analyzed histologically. All values were expressed as mean±SD (SD) of areas measured in three different samples and compared with copine 7 protein (*P<0.05).

[5] = FITC-labeled peptide, 30 minutes, FIG. 4

| Molecule | cell permeation ability / efficiency (dental pulp stem cells [1]; [5]) | cytotoxicity (MTT assay) (dental pulp stem cells [2]) | fluorescence expression at highest concentration (dental pulp stem cells [1]; [5]) | further results |
| --- | --- | --- | --- | --- |
| FEEGQAQWDCVNPKYKQKRR (Dual functional candidate peptide for cell penetration and bone tissue regeneration) [SEQ ID NO: 3, peptide from copine 7 protein, position 331-350] | relatively excellent cell permeation efficiency | – | – | – |
| CC(C)C[C@H](NC(=O)[C@@H](NC(=O)[C@@H](NC(=O)[C@@H](NC(=O)CNC(=O)[C@H](CO)NC(=O)[C@H](CC(N)=O)NC(=O)[C@H](CCCCN)NC(=O)[C@H](Cc1ccc(O)cc1)NC(=O)[C@H](CO)NC(=O)[C@H](CCCNC(=N)N)NC(=O)[C@H](CCCNC(=N)N)NC(=O)[C@H](CCCCN)NC(=O)[C@H](CCC(N)=O)NC(=O)[C@H](CCCCN)NC(=O)[C@H](Cc1ccc(O)cc1)NC(=O)[C@H](CCCCN)NC(=O)[C@@H]1CCCN1C(=O)[C@H](CC(N)=O)NC(=O)[C@@H](N)C(C)C)C(C)C)C(C)C)C(C)C)C(N)=O [SEQ ID NO: 6] (H-VNPKYKQKRRSYKNSGVVVL-NH2) | – | intracellularly toxic | – | – |
| STTFEEMQKA (Dual functional candidate peptide for cell penetration and bone tissue regeneration) [SEQ ID NO: 1, peptide from copine 7 protein, position 321-330] | no cell permeation ability | – | no fluorescence expression | – |
| CC(C)C[C@H](NC(=O)[C@@H](NC(=O)[C@@H](NC(=O)[C@@H](NC(=O)CNC(=O)[C@H](CO)NC(=O)[C@H](CC(N)=O)NC(=O)[C@H](CCCCN)NC(=O)[C@H](Cc1ccc(O)cc1)NC(=O)[C@@H](N)CO)C(C)C)C(C)C)C(C)C)C(N)=O [SEQ ID NO: 5, SYKNSGVVVL] (H-SYKNSGVVVL-NH2) | – | intracellularly toxic | – | – |
| FEEGQAQWDC (Dual functional candidate peptide for cell penetration and bone tissue regeneration) [SEQ ID NO: 2, peptide from copine 7 protein, position 331-340] | – | – | weak fluorescence | – |
| VNPKYKQKRR (Dual functional peptide for cell penetration and bone tissue regeneration) [SEQ ID NO: 4, peptide from copine 7 protein, position 341-350] | best cell permeation efficiency | – | – | fluorescence at 100 μM (dental pulp stem cells [1]; FITC-labeled peptide, 100 μM, 30 minutes, FIG. 4): had fluorescence; cell permeability compared with copine 7 protein (confocal microscope) (dental pulp stem cells [1]; versus 100 ng/ml copine 7 protein, 30 minutes, FIG. 5A): better cell permeability than the copine 7 protein; quantified fluorescence intensity compared with copine 7 protein (dental pulp stem cells [1]; versus 100 ng/ml copine 7 protein, FIG. 5B): strong fluorescence intensity compared to the copine 7 protein; expression degree of osteocalcin as fluorescence intensity ([3]; 200 μM and 500 μM peptide versus 100 ng/ml group, 18 days, FIG. 6): relatively stronger fluorescence intensity; bone differentiation ability compared with copine 7 protein ([3]; DPSCs, 18 days in osteogenic medium): superior to the copine 7 protein; effect of regenerating new bone at the skull defect part ([4]; bone graft material with 20 mg or 40 mg peptide versus 100 μg or 200 μg copine 7 protein, FIG. 7A): excellent effect of regenerating new bone; bone regeneration area (histomorphometric analysis) ([4]; versus copine 7 protein, FIG. 7B): significantly wider bone regeneration area than the copine 7 protein |
